Like-named read-outs stand apart in the source and are kept apart here.

What all share (assay): Differential Scanning Fluorimetry (DSF) Tm shift
Format in all cases: binding

One assay concerns the target T1, AKT3 Catalytic Domain (Homo sapiens, UniProt Q9Y243).
T1 construct: AKT3 (Q9Y243); CD; His-tag; made in house; host or cells: Escherichia coli
The following applies: 2 µM protein, 10 µM inhibitor, average of 3 experiments, each in duplicate.

The target in a further assay is T2, CDK2 + Cyclin A (Homo sapiens, UniProt P24941).
T2 construct: CDK2 (P24941); 1–299; His-tag; made in house; host or cells: Escherichia coli

The target of a further assay is T3, CDK2 + Cyclin E (Homo sapiens, UniProt P24941).
T3 construct: CDK2 (P24941); 1–299; His-tag; made in house; host or cells: Escherichia coli

For the next assay, the target named is T4, CHK2 Catalytic Domain (Homo sapiens, UniProt O96017).
T4 construct: For all of them, we expressed and purified the catalytic domain separately; His-tag; made in house; host or cells: Escherichia coli
T4 sequence (O96017 220-486 limits assumed): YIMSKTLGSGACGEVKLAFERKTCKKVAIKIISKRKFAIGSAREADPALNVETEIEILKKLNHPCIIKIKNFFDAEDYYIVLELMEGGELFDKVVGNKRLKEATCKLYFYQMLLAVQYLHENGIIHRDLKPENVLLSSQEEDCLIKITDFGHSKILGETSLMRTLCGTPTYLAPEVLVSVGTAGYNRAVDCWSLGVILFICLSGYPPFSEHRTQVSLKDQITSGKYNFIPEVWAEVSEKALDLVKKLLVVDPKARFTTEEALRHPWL
The note with it: 2 µM protein, 10 µM inhibitor, average of 3 experiments, each in duplicate.

A further assay addresses T5, DMPK Catalytic Domain (Homo sapiens, UniProt Q09013).
T5 construct: For all of them, we expressed and purified the catalytic domain separately; His-tag; made in house; host or cells: Escherichia coli
T5 sequence (Q09013 71-339 limits assumed): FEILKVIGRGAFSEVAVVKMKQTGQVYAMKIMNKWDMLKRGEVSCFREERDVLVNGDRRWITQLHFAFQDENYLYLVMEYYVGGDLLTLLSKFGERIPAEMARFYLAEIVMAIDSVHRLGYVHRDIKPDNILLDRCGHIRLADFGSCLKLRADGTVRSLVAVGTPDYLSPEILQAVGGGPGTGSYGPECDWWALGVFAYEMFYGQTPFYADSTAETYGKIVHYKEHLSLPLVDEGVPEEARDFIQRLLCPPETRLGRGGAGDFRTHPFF
The note with it: 2 µM protein, 10 µM inhibitor, average of 3 experiments, each in duplicate.

For another assay, the target named is T6, FAK2 Catalytic Domain (Homo sapiens, UniProt Q14289).
T6 construct: For all of them, we expressed and purified the catalytic domain separately; His-tag; made in house; host or cells: Escherichia coli
T6 sequence (Q14289 425-683 limits assumed): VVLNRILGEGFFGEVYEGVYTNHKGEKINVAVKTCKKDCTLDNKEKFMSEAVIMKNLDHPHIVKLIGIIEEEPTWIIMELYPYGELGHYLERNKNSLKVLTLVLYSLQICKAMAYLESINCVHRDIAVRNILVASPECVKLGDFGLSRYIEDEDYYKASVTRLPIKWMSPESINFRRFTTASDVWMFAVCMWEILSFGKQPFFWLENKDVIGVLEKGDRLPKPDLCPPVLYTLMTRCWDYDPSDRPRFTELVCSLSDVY
The note with it: 2 µM protein, 10 µM inhibitor, average of 3 experiments, each in duplicate.

The next assay has as its target T7, FES Catalytic Domain+SH2 (Homo sapiens, UniProt P07332).
T7 construct: for 8, we also made a longer version containing one or more additional domains; His-tag; made in house; host or cells: Escherichia coli
The following applies: 2 µM protein, 10 µM inhibitor, average of 3 experiments, each in duplicate.

In a further assay the target is T8, FES Catalytic Domain (Homo sapiens, UniProt P07332).
T8 construct: For all of them, we expressed and purified the catalytic domain separately; His-tag; made in house; host or cells: Escherichia coli
T8 sequence (P07332 561-822 limits assumed): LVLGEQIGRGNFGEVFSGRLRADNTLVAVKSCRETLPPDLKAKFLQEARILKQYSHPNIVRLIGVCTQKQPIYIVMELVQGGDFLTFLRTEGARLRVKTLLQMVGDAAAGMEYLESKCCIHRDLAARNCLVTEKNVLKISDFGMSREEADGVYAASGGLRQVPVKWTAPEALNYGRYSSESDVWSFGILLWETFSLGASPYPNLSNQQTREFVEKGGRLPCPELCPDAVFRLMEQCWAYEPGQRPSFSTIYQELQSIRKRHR
The following applies: 2 µM protein, 10 µM inhibitor, average of 3 experiments, each in duplicate.

Assay [1] addresses T9, PAK4 Catalytic Domain+PBD (Homo sapiens, UniProt O96013).
T9 construct: for 8, we also made a longer version containing one or more additional domains; His-tag; made in house; host or cells: Escherichia coli
The following applies: 2 µM protein, 10 µM inhibitor, average of 3 experiments, each in duplicate.

Another assay concerns the target T10, PAK4 Catalytic Domain (Homo sapiens, UniProt O96013).
T10 construct: For all of them, we expressed and purified the catalytic domain separately; His-tag; made in house; host or cells: Escherichia coli
The note with it: 2 µM protein, 10 µM inhibitor, average of 3 experiments, each in duplicate.

A further assay concerns the target T11, PAK7 Catalytic Domain (Homo sapiens, UniProt Q9P286).
T11 construct: For all of them, we expressed and purified the catalytic domain separately; His-tag; made in house; host or cells: Escherichia coli
The following applies: 2 µM protein, 10 µM inhibitor, average of 3 experiments, each in duplicate.

The target in assay [2] is SRC Catalytic Domain+SH2+SH3 (Homo sapiens, UniProt P12931). The following applies: 2 µM protein, 10 µM inhibitor, average of 3 experiments, each in duplicate.
Sequence of SRC Catalytic Domain+SH2+SH3 (P12931 84-523 limits assumed): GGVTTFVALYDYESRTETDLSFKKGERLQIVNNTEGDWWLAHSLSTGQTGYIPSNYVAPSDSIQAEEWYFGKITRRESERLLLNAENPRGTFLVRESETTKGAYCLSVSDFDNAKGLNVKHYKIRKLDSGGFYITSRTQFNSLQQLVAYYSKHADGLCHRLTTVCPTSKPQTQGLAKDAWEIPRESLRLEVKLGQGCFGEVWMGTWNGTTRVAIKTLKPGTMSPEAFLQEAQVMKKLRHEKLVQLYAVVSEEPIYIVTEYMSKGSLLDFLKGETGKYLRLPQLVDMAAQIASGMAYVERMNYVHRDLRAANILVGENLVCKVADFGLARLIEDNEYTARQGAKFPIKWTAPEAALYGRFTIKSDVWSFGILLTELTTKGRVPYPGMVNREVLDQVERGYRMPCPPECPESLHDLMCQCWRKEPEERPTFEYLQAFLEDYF
The target in assay [3] is T12, STK3 Catalytic domain+SARAH (Homo sapiens, UniProt Q13188).
T12 construct: for 8, we also made a longer version containing one or more additional domains; His-tag; made in house; host or cells: Escherichia coli
T12 sequence (Q13188 1-491): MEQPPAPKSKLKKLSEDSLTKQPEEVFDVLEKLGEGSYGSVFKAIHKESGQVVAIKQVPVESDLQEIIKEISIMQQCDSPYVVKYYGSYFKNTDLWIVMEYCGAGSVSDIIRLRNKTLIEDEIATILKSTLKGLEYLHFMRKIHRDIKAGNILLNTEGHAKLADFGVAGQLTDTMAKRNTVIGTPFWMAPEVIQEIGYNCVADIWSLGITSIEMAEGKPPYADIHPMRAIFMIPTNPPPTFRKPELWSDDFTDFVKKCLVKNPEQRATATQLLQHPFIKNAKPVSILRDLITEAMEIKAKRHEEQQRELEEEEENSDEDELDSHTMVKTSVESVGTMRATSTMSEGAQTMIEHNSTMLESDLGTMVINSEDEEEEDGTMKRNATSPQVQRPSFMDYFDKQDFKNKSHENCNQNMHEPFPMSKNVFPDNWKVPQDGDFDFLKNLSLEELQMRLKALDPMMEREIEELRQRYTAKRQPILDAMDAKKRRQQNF
The note with it: 2 µM protein, 10 µM inhibitor, average of 3 experiments, each in duplicate.

A further assay has as its target T13, STK3 Catalytic Domain (Homo sapiens, UniProt Q13188).
T13 construct: For all of them, we expressed and purified the catalytic domain separately; His-tag; made in house; host or cells: Escherichia coli
T13 sequence (Q13188 27-278 limits assumed): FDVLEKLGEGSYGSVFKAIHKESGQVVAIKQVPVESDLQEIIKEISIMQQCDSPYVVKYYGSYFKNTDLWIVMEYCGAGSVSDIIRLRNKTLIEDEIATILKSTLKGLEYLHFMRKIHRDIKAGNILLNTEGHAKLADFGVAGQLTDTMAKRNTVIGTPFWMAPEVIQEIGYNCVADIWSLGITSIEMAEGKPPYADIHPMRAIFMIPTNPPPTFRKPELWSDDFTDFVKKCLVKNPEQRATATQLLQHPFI
The following applies: 2 µM protein, 10 µM inhibitor, average of 3 experiments, each in duplicate.

The target in another assay is SRC Catalytic Domain (Homo sapiens, UniProt P12931). Further details: For all of them, we expressed and purified the catalytic domain separately; His-tag; made in house; host or cells: Escherichia coli. The following applies: 2 µM protein, 10 µM inhibitor, average of 3 experiments, each in duplicate.
Sequence of SRC Catalytic Domain (P12931 270-523 limits assumed): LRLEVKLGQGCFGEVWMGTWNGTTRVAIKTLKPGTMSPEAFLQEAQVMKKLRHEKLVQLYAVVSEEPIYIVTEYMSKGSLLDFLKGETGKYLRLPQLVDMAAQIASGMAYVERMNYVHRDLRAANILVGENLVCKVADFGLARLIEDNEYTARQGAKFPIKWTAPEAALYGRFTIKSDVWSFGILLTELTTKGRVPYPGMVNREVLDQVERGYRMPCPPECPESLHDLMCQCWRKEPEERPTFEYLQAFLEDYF
Where [4] appears, read: CDK2 + Cyclin A, 2 µM protein, 10 µM inhibitor, average of 3 experiments, each in duplicate.
The mark [5] stands for this setting: CDK2 + Cyclin E, 2 µM protein, 10 µM inhibitor, average of 3 experiments, each in duplicate.

T9 sequence (O96013 whole entry, the tested form may be a part): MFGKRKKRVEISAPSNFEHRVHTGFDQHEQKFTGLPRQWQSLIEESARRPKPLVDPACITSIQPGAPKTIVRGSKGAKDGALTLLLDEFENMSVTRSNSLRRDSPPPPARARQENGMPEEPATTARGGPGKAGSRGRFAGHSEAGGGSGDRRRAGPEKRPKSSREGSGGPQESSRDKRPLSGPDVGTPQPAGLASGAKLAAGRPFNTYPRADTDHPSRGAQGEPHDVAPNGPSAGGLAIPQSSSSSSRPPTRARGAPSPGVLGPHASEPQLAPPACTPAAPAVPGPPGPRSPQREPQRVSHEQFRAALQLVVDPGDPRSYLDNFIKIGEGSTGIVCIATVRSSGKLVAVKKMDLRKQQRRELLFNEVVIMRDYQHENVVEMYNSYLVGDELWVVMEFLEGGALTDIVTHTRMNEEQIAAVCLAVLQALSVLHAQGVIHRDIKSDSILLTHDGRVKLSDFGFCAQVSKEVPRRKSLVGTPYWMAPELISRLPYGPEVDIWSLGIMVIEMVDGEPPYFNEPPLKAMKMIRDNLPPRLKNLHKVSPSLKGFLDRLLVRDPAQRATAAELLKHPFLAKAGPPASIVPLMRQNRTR
T7 sequence (P07332 448-822 limits assumed): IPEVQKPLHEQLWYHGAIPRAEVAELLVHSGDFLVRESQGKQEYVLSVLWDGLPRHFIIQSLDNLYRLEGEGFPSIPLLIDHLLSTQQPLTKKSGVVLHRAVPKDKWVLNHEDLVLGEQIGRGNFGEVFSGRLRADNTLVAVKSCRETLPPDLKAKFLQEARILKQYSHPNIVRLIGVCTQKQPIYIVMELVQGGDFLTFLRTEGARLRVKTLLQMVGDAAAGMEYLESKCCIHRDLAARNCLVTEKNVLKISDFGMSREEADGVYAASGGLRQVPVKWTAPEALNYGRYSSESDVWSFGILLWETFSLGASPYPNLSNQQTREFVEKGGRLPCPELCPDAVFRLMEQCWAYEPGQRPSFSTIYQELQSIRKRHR
T10 sequence (O96013 321-572 limits assumed): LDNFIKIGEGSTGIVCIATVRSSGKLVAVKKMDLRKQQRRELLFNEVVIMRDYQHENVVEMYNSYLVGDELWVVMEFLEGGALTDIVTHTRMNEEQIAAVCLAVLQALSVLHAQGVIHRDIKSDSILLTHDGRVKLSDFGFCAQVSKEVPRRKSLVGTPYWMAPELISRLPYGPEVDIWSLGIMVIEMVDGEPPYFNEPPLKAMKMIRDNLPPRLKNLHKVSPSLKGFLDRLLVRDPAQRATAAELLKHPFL
T11 sequence (Q9P286 449-700 limits assumed): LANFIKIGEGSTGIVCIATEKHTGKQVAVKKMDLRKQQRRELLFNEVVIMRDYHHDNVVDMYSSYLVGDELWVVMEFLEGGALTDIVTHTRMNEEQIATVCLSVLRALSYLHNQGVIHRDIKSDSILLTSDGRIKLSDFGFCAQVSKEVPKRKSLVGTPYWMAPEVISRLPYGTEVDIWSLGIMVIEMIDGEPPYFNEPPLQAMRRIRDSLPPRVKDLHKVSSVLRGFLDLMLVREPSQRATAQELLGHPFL
T1 sequence (Q9Y243 122-479): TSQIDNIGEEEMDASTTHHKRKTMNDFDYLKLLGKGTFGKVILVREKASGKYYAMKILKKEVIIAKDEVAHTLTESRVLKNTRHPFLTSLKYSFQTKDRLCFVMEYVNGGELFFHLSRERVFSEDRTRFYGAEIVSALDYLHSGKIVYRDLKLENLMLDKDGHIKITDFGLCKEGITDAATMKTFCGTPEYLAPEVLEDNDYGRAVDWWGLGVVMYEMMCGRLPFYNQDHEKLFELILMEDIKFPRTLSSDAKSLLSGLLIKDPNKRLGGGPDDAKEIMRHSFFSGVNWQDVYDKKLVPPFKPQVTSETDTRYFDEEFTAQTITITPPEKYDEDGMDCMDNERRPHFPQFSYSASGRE

On to `NC(=O)Nc1sc(-c2ccccc2)cc1C(N)=O` [IKK-2 Inhibitor VI], for which the “Melting temperature (Tm) shift” value on AKT3 Catalytic Domain worked out at 0.0 degrees Celcius; at CDK2 + Cyclin A (setting [4]) it was 0.8 degrees Celcius; at CDK2 + Cyclin E (setting [5]), 0.2 degrees Celcius; at CHK2 Catalytic Domain, 3.6 degrees Celcius; at DMPK Catalytic Domain, 1.4 degrees Celcius; on FAK2 Catalytic Domain, 1.4 degrees Celcius. Further, the “Melting temperature (Tm) shift” value is on record as 0.7 degrees Celcius on FES Catalytic Domain+SH2; 1.8 degrees Celcius at FES Catalytic Domain; 2.5 degrees Celcius in assay [1]; 1.3 degrees Celcius on PAK4 Catalytic Domain; 1.3 degrees Celcius at PAK7 Catalytic Domain; 1.1 degrees Celcius in assay [2]. Besides, the “Melting temperature (Tm) shift” value in [3] was determined as 2.0 degrees Celcius; on STK3 Catalytic Domain, 2.4 degrees Celcius; on SRC Catalytic Domain, 1.3 degrees Celcius.
`NC(=O)Nc1cc(-c2ccccc2)sc1C(N)=O` [IKK-2 Inhibitor XI]: the “Melting temperature (Tm) shift” value at AKT3 Catalytic Domain was 0.0 degrees Celcius; at CDK2 + Cyclin A (setting [4]), 0.9 degrees Celcius; at CDK2 + Cyclin E (setting [5]) it was 0.7 degrees Celcius; on CHK2 Catalytic Domain it was 5.8 degrees Celcius; at DMPK Catalytic Domain, 1.6 degrees Celcius; on FAK2 Catalytic Domain, 1.5 degrees Celcius. In addition, the “Melting temperature (Tm) shift” value is 1.1 degrees Celcius on FES Catalytic Domain+SH2; 2.1 degrees Celcius at FES Catalytic Domain; 2.9 degrees Celcius in assay [1]; 1.7 degrees Celcius on PAK4 Catalytic Domain; 1.3 degrees Celcius on PAK7 Catalytic Domain; 1.0 degrees Celcius in assay [2]. Also, the “Melting temperature (Tm) shift” value in [3] is reported as 1.4 degrees Celcius; on STK3 Catalytic Domain, 2.4 degrees Celcius; on SRC Catalytic Domain it was 1.5 degrees Celcius.
`O=C1Cc2c([nH]c3ccc(Br)cc23)-c2ccccc2N1` [Kenpaullone]: the “Melting temperature (Tm) shift” value at AKT3 Catalytic Domain stood at 0.0 degrees Celcius; on CDK2 + Cyclin A (setting [4]) it was 0.4 degrees Celcius; at CDK2 + Cyclin E (setting [5]) it was 0.3 degrees Celcius; at CHK2 Catalytic Domain, 3.4 degrees Celcius; at DMPK Catalytic Domain it was 1.9 degrees Celcius; at FAK2 Catalytic Domain, 0.3 degrees Celcius. In addition, the “Melting temperature (Tm) shift” value on FES Catalytic Domain+SH2 was determined as 0.0 degrees Celcius; on FES Catalytic Domain it was 0.4 degrees Celcius; in assay [1] it was 3.6 degrees Celcius; at PAK4 Catalytic Domain, 1.4 degrees Celcius; at PAK7 Catalytic Domain it was 0.7 degrees Celcius; in assay [2], 0.2 degrees Celcius. Moreover, the results for the “Melting temperature (Tm) shift” value (in assay [3]; on STK3 Catalytic Domain; at SRC Catalytic Domain) were 1.5 degrees Celcius, 0.7 degrees Celcius and 0.4 degrees Celcius, respectively.
For `Cc1[nH]c(/C=C2\C(=O)Nc3ccc(S(=O)(=O)N(C)c4cccc(Cl)c4)cc32)c(C)c1C(=O)N1CCN(C)CC1` [Met Kinase Inhibitor], the “Melting temperature (Tm) shift” value was determined as 0.0 degrees Celcius at AKT3 Catalytic Domain; 0.4 on CDK2 + Cyclin A; 0.1 on CDK2 + Cyclin E; 1.2 degrees Celcius at CHK2 Catalytic Domain; 1.2 degrees Celcius on DMPK Catalytic Domain; 0.1 degrees Celcius at FAK2 Catalytic Domain. For the same compound, the “Melting temperature (Tm) shift” value on FES Catalytic Domain+SH2 is 0.1 degrees Celcius; on FES Catalytic Domain it was 0.6 degrees Celcius; in [1], 0.3 degrees Celcius; at PAK4 Catalytic Domain it was 0.9 degrees Celcius; at PAK7 Catalytic Domain it was 0.2 degrees Celcius; in assay [2] it was 0.2 degrees Celcius. In addition, the “Melting temperature (Tm) shift” value in [3] amounted to 0.9 degrees Celcius; on STK3 Catalytic Domain, 0.7 degrees Celcius; on SRC Catalytic Domain, 0.3 degrees Celcius.
`Cc1ccc([N+](=O)[O-])cc1S(=O)(=O)N(C)N=Cc1cnc2ccc(Br)cn12.Cl.O.O` [PI 3-Kα Inhibitor VIII]: the “Melting temperature (Tm) shift” value at AKT3 Catalytic Domain is reported as 1.3 degrees Celcius; on CDK2 + Cyclin A (setting [4]), 4.2 degrees Celcius; at CDK2 + Cyclin E (setting [5]), 0.7 degrees Celcius; on CHK2 Catalytic Domain, 2.5 degrees Celcius; on DMPK Catalytic Domain it was 3.1 degrees Celcius; at FAK2 Catalytic Domain, 1.6 degrees Celcius. In addition, the “Melting temperature (Tm) shift” value on FES Catalytic Domain+SH2 was found to be 1.4 degrees Celcius; on FES Catalytic Domain it was 3.1 degrees Celcius; in assay [1], 2.1 degrees Celcius; at PAK4 Catalytic Domain, 3.0 degrees Celcius; on PAK7 Catalytic Domain, 1.8 degrees Celcius; in assay [2] it was 0.9 degrees Celcius. The figures for the “Melting temperature (Tm) shift” value (in assay [3]; on STK3 Catalytic Domain; at SRC Catalytic Domain) were 4.2 degrees Celcius, 2.7 degrees Celcius and 0.7 degrees Celcius, respectively.
In the case of `O=C1NC(=O)C(=Cc2cccc(C(F)(F)F)c2)S1` [PIM1/2 Kinase Inhibitor V], the “Melting temperature (Tm) shift” value turned out to be 0.1 degrees Celcius on AKT3 Catalytic Domain; 0.3 degrees Celcius at CDK2 + Cyclin A (setting [4]); 0.2 degrees Celcius at CDK2 + Cyclin E (setting [5]); 0.5 degrees Celcius on CHK2 Catalytic Domain; 0.1 degrees Celcius at DMPK Catalytic Domain; 0.2 degrees Celcius on FAK2 Catalytic Domain. Also, the “Melting temperature (Tm) shift” value at FES Catalytic Domain+SH2 was 0.4 degrees Celcius; at FES Catalytic Domain, 0.5 degrees Celcius; in [1] it was 0.4 degrees Celcius; on PAK4 Catalytic Domain, 0.2 degrees Celcius; at PAK7 Catalytic Domain, 0.1 degrees Celcius; in [2], 0.2 degrees Celcius. The “Melting temperature (Tm) shift” value in assay [3] was found to be 0.4 degrees Celcius; at STK3 Catalytic Domain, 0.2 degrees Celcius; on SRC Catalytic Domain, 0.1 degrees Celcius.

The values are drawn from article PMC4051630, “A Comparison of Protein Kinases Inhibitor Screening Methods Using Both Enzymatic Activity and Binding Affinity Determination” (PLoS ONE, 2014).
